Measured values taken from PubChem BioAssay AID1918944 (Molecular Pharmacology Branch, DTP, NCI, 2023).
Where “and” joins values, the source holds several entries; their conditions need not be identical. Equal entries are not always repeated.

Test system: 786-0 complex spheroid viability
Assay: Anticancer human tumor 786-0 cell line growth inhibition;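 also: spheroids exposed to agents for seven days before readout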
Details: for viability, T/C: stronger effect = lower value; active = viability on the fitted dose curve at most 10% of control; inactive = the rest
Summary of the method: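 Drug combinations with the LSD1 inhibitor iadademstat tested on tumor cells co-cultured as spheroids with endothelial cells and mesenchymal stem cells. Concentrations descended in half-log increments from clinical Cmax or 10 microM.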

[1] = curve of first compound, second compound 0.1 µM
[2] = curve of first compound, second compound 0.316 µM
[3] = curve of first compound, second compound 1 µM
[4] = curve of first compound, second compound 3.16 µM
[5] = curve of first compound, second compound 10 µM
[6] = second compound 0.1 µM, first compound 0.0316 µM
[7] = second compound 0.1 µM, first compound 0.1 µM
[8] = second compound 0.1 µM, first compound 0.316 µM
[9] = second compound 0.1 µM, first compound 1 µM
[10] = second compound 0.1 µM, first compound 3.16 µM
[11] = second compound 0.1 µM, first compound 10 µM
[12] = second compound 0.316 µM, first compound 0.0316 µM
[13] = second compound 0.316 µM, first compound 0.1 µM
[14] = second compound 0.316 µM, first compound 0.316 µM
[15] = second compound 0.316 µM, first compound 1 µM
[16] = second compound 0.316 µM, first compound 3.16 µM
[17] = second compound 0.316 µM, first compound 10 µM
[18] = second compound 1 µM, first compound 0.0316 µM
[19] = second compound 1 µM, first compound 0.1 µM
[20] = second compound 1 µM, first compound 0.316 µM
[21] = second compound 1 µM, first compound 1 µM
[22] = second compound 1 µM, first compound 3.16 µM
[23] = second compound 1 µM, first compound 10 µM
[24] = second compound 3.16 µM, first compound 0.0316 µM
[25] = second compound 3.16 µM, first compound 0.1 µM
[26] = second compound 3.16 µM, first compound 0.316 µM
[27] = second compound 3.16 µM, first compound 1 µM
[28] = second compound 3.16 µM, first compound 3.16 µM
[29] = second compound 3.16 µM, first compound 10 µM
[30] = second compound 10 µM, first compound 0.0316 µM
[31] = second compound 10 µM, first compound 0.1 µM
[32] = second compound 10 µM, first compound 0.316 µM
[33] = second compound 10 µM, first compound 1 µM
[34] = second compound 10 µM, first compound 3.16 µM
[35] = second compound 10 µM, first compound 10 µM
[36] = second compound 0.1 µM, first compound 0.00316 µM
[37] = second compound 0.1 µM, first compound 0.01 µM
[38] = second compound 0.316 µM, first compound 0.00316 µM
[39] = second compound 0.316 µM, first compound 0.01 µM
[40] = second compound 1 µM, first compound 0.00316 µM
[41] = second compound 1 µM, first compound 0.01 µM
[42] = second compound 3.16 µM, first compound 0.00316 µM
[43] = second compound 3.16 µM, first compound 0.01 µM
[44] = second compound 10 µM, first compound 0.00316 µM
[45] = second compound 10 µM, first compound 0.01 µM

CC(C)c1c(-c2ccccc2)nc2c(C#N)c[nH]n2c1=O + NC1CC1c1ccc(-c2cccc(O)c2)cc1
inactive: viability, T/C [6] 114% | viability, T/C [7] 120% | viability, T/C [8] 124% | viability, T/C [9] 121% | viability, T/C [10] 116% | viability, T/C [11] 119% | viability, T/C [12] 118% | viability, T/C [13] 117% | viability, T/C [14] 115% | viability, T/C [15] 121% | viability, T/C [16] 119% | viability, T/C [17] 115% | viability, T/C [18] 117% | viability, T/C [19] 121% | viability, T/C [20] 123% | viability, T/C [21] 118% | viability, T/C [22] 116% | viability, T/C [23] 113% | viability, T/C [24] 113% | viability, T/C [25] 113% | viability, T/C [26] 121% | viability, T/C [27] 121% | viability, T/C [28] 117% | viability, T/C [29] 116% | viability, T/C [30] 103% | viability, T/C [31] 106% | viability, T/C [32] 110% | viability, T/C [33] 107% | viability, T/C [34] 107% | viability, T/C [35] 113%
> 10000 nM: IC50 [1] | IC50 [2] | IC50 [3] | IC50 [4] | IC50 [5]

NS(=O)(=O)OCC1CC(n2ccc3c(NC4CCc5ccccc54)ncnc32)CC1O (stereo not drawn) + NC1CC1c1ccc(-c2cccc(O)c2)cc1
178 nM: IC50 [2]
190 nM: IC50 [1]
inactive: viability, T/C (second compound 0.1 µM, first compound 0.00949 µM) 113% | viability, T/C (second compound 0.1 µM, first compound 0.03 µM) 96.6% | viability, T/C (second compound 0.1 µM, first compound 0.0949 µM) 94% | viability, T/C (second compound 0.1 µM, first compound 0.3 µM) 21% | viability, T/C (second compound 0.1 µM, first compound 0.949 µM) 9.54% | viability, T/C (second compound 0.1 µM, first compound 3 µM) 13.7% | viability, T/C (second compound 0.316 µM, first compound 0.00949 µM) 104% | viability, T/C (second compound 0.316 µM, first compound 0.03 µM) 92.9% | viability, T/C (second compound 0.316 µM, first compound 0.0949 µM) 88.5% | viability, T/C (second compound 0.316 µM, first compound 0.3 µM) 18.2% | viability, T/C (second compound 0.316 µM, first compound 0.949 µM) 9.34% | viability, T/C (second compound 0.316 µM, first compound 3 µM) 14.3% | viability, T/C (second compound 1 µM, first compound 0.00949 µM) 117% | viability, T/C (second compound 1 µM, first compound 0.03 µM) 98.6% | viability, T/C (second compound 1 µM, first compound 0.0949 µM) 79.1% | viability, T/C (second compound 1 µM, first compound 0.3 µM) 20.3% | viability, T/C (second compound 1 µM, first compound 0.949 µM) 9.8% | viability, T/C (second compound 1 µM, first compound 3 µM) 15.8% | viability, T/C (second compound 3.16 µM, first compound 0.00949 µM) 110% | viability, T/C (second compound 3.16 µM, first compound 0.03 µM) 88.1% | viability, T/C (second compound 3.16 µM, first compound 0.0949 µM) 83.4% | viability, T/C (second compound 3.16 µM, first compound 0.3 µM) 20.8% | viability, T/C (second compound 3.16 µM, first compound 0.949 µM) 10.9% | viability, T/C (second compound 3.16 µM, first compound 3 µM) 16.5% | viability, T/C (second compound 10 µM, first compound 0.00949 µM) 99.9% | viability, T/C (second compound 10 µM, first compound 0.03 µM) 89% | viability, T/C (second compound 10 µM, first compound 0.0949 µM) 76.6% | viability, T/C (second compound 10 µM, first compound 0.3 µM) 21.3% | viability, T/C (second compound 10 µM, first compound 0.949 µM) 13% | viability, T/C (second compound 10 µM, first compound 3 µM) 15.4%
175 nM: IC50 [4]
168 nM: IC50 [3]
165 nM: IC50 [5]

NC1CCC(NC2CC2c2ccccc2)CC1 (stereo not drawn)
inactive: viability, T/C (compound 0.1 µM) 114% [middle of 25 runs] | viability, T/C (compound 0.316 µM) 113% and 132% | viability, T/C (compound 1 µM) 112% [middle of 25 runs] | viability, T/C (compound 3.16 µM) 106% [middle of 25 runs] | viability, T/C (compound 10 µM) 85.4% [middle of 23 runs]
> 10000 nM: IC50 (compound alone, run of 11/29/2021)

O=C(C=Cn1cnc(-c2cc(C(F)(F)F)cc(C(F)(F)F)c2)n1)NNc1cnccn1 + NC1CC1c1ccc(-c2cccc(O)c2)cc1
37.5 nM: IC50 [4]
37.7 nM: IC50 [1]
inactive: viability, T/C [36] 92.5% | viability, T/C [37] 72.2% | viability, T/C [6] 51.1% | viability, T/C [7] 39.1% | viability, T/C [8] 28.9% | viability, T/C [9] 25.2% | viability, T/C [38] 100% | viability, T/C [39] 72.5% | viability, T/C [12] 51.5% | viability, T/C [13] 36.7% | viability, T/C [14] 29.9% | viability, T/C [15] 26.2% | viability, T/C [40] 95.7% | viability, T/C [41] 71.3% | viability, T/C [18] 53.4% | viability, T/C [19] 37.7% | viability, T/C [20] 31.2% | viability, T/C [21] 22.7% | viability, T/C [42] 99.4% | viability, T/C [43] 73.5% | viability, T/C [24] 52.4% | viability, T/C [25] 38.1% | viability, T/C [26] 29.1% | viability, T/C [27] 26.3% | viability, T/C [44] 108% | viability, T/C [45] 67.8% | viability, T/C [30] 55% | viability, T/C [31] 39.4% | viability, T/C [32] 29.7% | viability, T/C [33] 25.4%
40 nM: IC50 [3]
34.3 nM: IC50 [2]
35.6 nM: IC50 [5]

CC(C)CC(NC(=O)C(Cc1ccccc1)NC(=O)c1cnccn1)B(O)O (stereo not drawn) + NC1CC1c1ccc(-c2cccc(O)c2)cc1
3.71 nM: IC50 [1]
3.52 nM: IC50 [2]
2.35 nM: IC50 [5]
3.41 nM: IC50 [3]
3.23 nM: IC50 [4]
active: viability, T/C [37] 11.2% | viability, T/C [6] 1.11% | viability, T/C [7] 0.47% | viability, T/C [39] 9.41% | viability, T/C [12] 1.04% | viability, T/C [13] 0.33% | viability, T/C [41] 10.7% | viability, T/C [18] 1.17% | viability, T/C [19] 0.5% | viability, T/C [43] 9.96% | viability, T/C [24] 1.23% | viability, T/C [25] 0.53% | viability, T/C [45] 6.5% | viability, T/C [30] 0.86% | viability, T/C [31] 0.34%
inactive: viability, T/C (second compound 0.1 µM, first compound 0.000316 µM) 114% | viability, T/C (second compound 0.1 µM, first compound 0.001 µM) 110% | viability, T/C [36] 55.5% | viability, T/C (second compound 0.316 µM, first compound 0.000316 µM) 114% | viability, T/C (second compound 0.316 µM, first compound 0.001 µM) 111% | viability, T/C [38] 53.5% | viability, T/C (second compound 1 µM, first compound 0.000316 µM) 114% | viability, T/C (second compound 1 µM, first compound 0.001 µM) 109% | viability, T/C [40] 51.8% | viability, T/C (second compound 3.16 µM, first compound 0.000316 µM) 105% | viability, T/C (second compound 3.16 µM, first compound 0.001 µM) 110% | viability, T/C [42] 50.4% | viability, T/C (second compound 10 µM, first compound 0.000316 µM) 102% | viability, T/C (second compound 10 µM, first compound 0.001 µM) 99.6% | viability, T/C [44] 32.9%

CC1COCCN1c1cc(C2(S(C)(=N)=O)CC2)nc(-c2ccnc3[nH]ccc23)n1 (stereo not drawn) + NC1CC1c1ccc(-c2cccc(O)c2)cc1
933 nM: IC50 [3]
819 nM: IC50 [4]
943 nM: IC50 [1]
751 nM: IC50 [5]
1020 nM: IC50 [2]
inactive: viability, T/C [6] 99.5% | viability, T/C [7] 107% | viability, T/C [8] 89.1% | viability, T/C [9] 47.4% | viability, T/C [10] 22.8% | viability, T/C [11] 14.4% | viability, T/C [12] 114% | viability, T/C [13] 110% | viability, T/C [14] 98.8% | viability, T/C [15] 49.7% | viability, T/C [16] 22.7% | viability, T/C [17] 14.8% | viability, T/C [18] 101% | viability, T/C [19] 102% | viability, T/C [20] 88% | viability, T/C [21] 46.4% | viability, T/C [22] 22.9% | viability, T/C [23] 12.8% | viability, T/C [24] 94.5% | viability, T/C [25] 101% | viability, T/C [26] 86% | viability, T/C [27] 41.8% | viability, T/C [28] 22.9% | viability, T/C [29] 14.6% | viability, T/C [30] 99% | viability, T/C [31] 95.2% | viability, T/C [32] 81.3% | viability, T/C [33] 38.1% | viability, T/C [34] 25.6% | viability, T/C [35] 13.4%

COc1ccc([C@@H](O)c2cc(-c3ncnc4cc(N5CCOCC5)ccc34)c(F)cc2Cl)nn1
7010 nM and 5890 nM: IC50 (curve of compound)
inactive: viability, T/C (compound 0.0316 µM) 105% and 102% | viability, T/C (compound 0.1 µM) 105% and 103% | viability, T/C (compound 0.316 µM) 107% and 99.3% | viability, T/C (compound 1 µM) 94.2% and 89.3% | viability, T/C (compound 3.16 µM) 66.3% and 59.2% | viability, T/C (compound 10 µM) 42.8% and 42.1%
